Assay results published in US8759564B2, “Amidoacetonitrile compounds having pesticidal activity” (Novartis AG, priority 2009, dated 2014).

Columns and labels:
Haemonchus contortus = test: In-vivo test in Mongolian gerbils using peroral application; conditions: dose 0.32 mg/kg, H. contortus
Method: (§1) 2. In-vivo Test on Trichostrongylus colubriformis and Haemonchus contortus in Mongolian Gerbils (Meriones unquiculatus) Using Peroral Application Six to eight week old Mongolian gerbils are infected through a stomach tube with ca. 2000 third instar larvae each of T. colubriformis and H contortus. 6 days after infection, the gerbils are treated by peroral application with the test compounds, dissolved in a mixture of 2 pasts DMSO and 1 part polyethylene glycol (PEG 400). On day 9 (3 days after treatment), when most of the H. cantortus that are still present are late 4th instar larvae and most of the T. colubriformis are immature adults, the gerbils are killed in order to count the worms. The efficacy is calculated as the % reduction of the number of worms in each gerbil, compared with the geometric average of number of worms from 6 infected and untreated gerbils.

[1] = tested on: Trichostrongylus colubriformis; test: as above; conditions: dose 0.32 mg/kg, T. colubriformis
Method: as §1

[2] = tested on: Teladorsagia circumcincta; test: In-vivo test in sheep using peroral application; conditions: oral, worm burden in abomasum 19 to 21 days after treatment
Method: 3. In-Vivo Test on Teladorsagia circumcincta in Sheep Using Peroral Application Sheep are infected with 6,000 to 8,000 third stage larvae of Teladorsagia circumcincta (Tca) 7 to 5 days prior to treatment Animals in the treated groups are treated orally at a dose of 2 or 5 mg per kg bodyweight. […] The animals are euthanized 19 to 21 days after treatment and the worm burden in the abomasum is examined. Efficacy assessment of the compounds is determined by comparison of the treated and untreated groups worm counts, calculated using Abbott's formula as follows: % efficacy=100×(C−T)/C, where C is the geometric mean worm count of each species for the untreated control group and T, the geometric mean worm count of each species for the treated group.

Ostertagia ostertagi = test: In-vivo test in cattle using peroral application; conditions: oral, worm burden in abomasum 23 to 28 days after treatment
Method: 4. In-vivo Test on Ostertagia ostertagi in Cattle Using Peroral Application Cattle are infected with 7,000 to 10,000 third stage larvae of Ostertagia ostertagi (Oo) 7 to 5 days prior to treatment. […] The animals are euthanized 23 to 28 days after treatment and the worm burden in the abomasum is examined. Efficacy assessment of the compounds is determined by comparison of the treated and untreated groups worm counts, calculated using Abbott's formula as follows: % efficacy=100×(C−T)/C; where C is the geometric mean worm count of each species for the untreated control group and T, the geometric mean worm count of each species for the treated group.

Row | Compound | efficacy (% reduction of the number of worms) (Haemonchus contortus) [%] | efficacy (% reduction of the number of worms) [1] [%] | Efficacy against Tca [%] ([2]; dose 2 mg/kg) | Efficacy against Oo [%] (Ostertagia ostertagi; dose 5 mg/kg) | melting point [°C] | Efficacy against Tca [%] ([2]; dose 5 mg/kg) | Efficacy against Oo [%] (Ostertagia ostertagi; dose 20 mg/kg)
1 | CC(C#N)(COc1cc(C#N)ccc1Oc1ccc(OC(F)(F)F)cc1Cl)NC(=O)c1ccc(OC(F)(F)F)cc1 (racemic) [Compound No. 1.1, N-[1-cyano-1-methyl-2-(5-cyano-2-{2-chloro-4-trifluoromethoxy-phenoxy}-phenoxy)-ethyl]-4-trifluoromethoxybenzamide] | 100 | 100 | 99 | 100 |  |  | 
2 | CC(C#N)(COc1cc(C#N)ccc1Oc1ccc(OC(F)(F)F)cc1Cl)NC(=O)c1ccc(SC(F)(F)F)cc1 (racemic) [Compound No. 1.7, N-[1-cyano-1-methyl-2-(5-cyano-2-{2-chloro-4-trifluoromethoxy-phenoxy}-phenoxy)-ethyl]-4-trifluoromethylsulfanylbenzamide] | 100 | 100 | 99 | 100 | 136 to 137 |  | 
3 | CC(C#N)(COc1cc(C#N)ccc1Oc1ccc(OC(F)(F)F)cc1Cl)NC(=O)c1ccc(S(=O)(=O)C(F)(F)F)cc1 (racemic) [Compound No. 1.12, N-[1-cyano-1-methyl-2-(5-cyano-2-{2-chloro-4-trifluoromethoxy-phenoxy}-phenoxy)-ethyl]-4-trifluoromethylsulfonylbenzamide] | 98 | 98 | 99 | 100 | 128 to 130 |  | 
4 | C[C@@](C#N)(COc1cc(C#N)ccc1Oc1ccc(OC(F)(F)F)cc1Cl)NC(=O)c1ccc(OC(F)(F)F)cc1 [Compound No. 1.3, N-[(1R)-1-cyano-2-(5-cyano-2-{2-chloro-4-trifluoromethoxyphenoxy}-phenoxy)-1-methylethyl]-4-trifluoromehoxy-benzamide] | 100 | 100 |  |  |  |  | 
5 | CC(C#N)(COc1cc(Cl)ccc1Oc1ccc(Cl)cc1Cl)NC(=O)c1ccc(OC(F)(F)F)cc1 (stereo not shown) [reference compound] |  |  |  |  |  | 15 | 
6 | CC(C#N)(COc1cc(C#N)ccc1Oc1ccc(Cl)cc1Cl)NC(=O)c1ccc(OC(F)(F)F)cc1 (stereo not shown) [reference compound] |  |  |  |  |  | 0 | 55
